# Test results as given in paper PMC5862576, “Mitochondrial fission as a driver of stemness in tumor cells: mDIVI1 inhibits mitochondrial function, cell migration and cancer stem cell (CSC) signalling” (Oncotarget, 2018).
# Legend:
# MCF7 cells [1] = experiment: Bradford assay (protein content); type: cell-based, Human
# Description: Extracellular acidification rate (ECAR) and oxygen consumption rate (OCR) were measured in a XF96 Extracellular Flux Analyzer (Seahorse Biosciences). Briefly, 1 × 10^4 MCF7 cells per well were seeded in XF96 plates and incubated with complete medium. When cells were attached, mDIVI1 and vehicle treatments were added. Six replicates were run for each condition. After 48 hours, un-buffered DMEM XF medium supplemented with 2 mM glutamine (pH 7.4) was added to the cells, and placed in a 37° C CO2-free incubator for 1 hour. Ten mM glucose, 1 μM oligomycin and 100 mM 2-deoxyglucose (2-DG) were injected into the media at different time points and ECAR was measured. Likewise, ECAR and OCR were quantified using un-buffered DMEM XF medium supplemented with 2 mM glutamine, 2 mM sodium pyruvate and 10 mM glucose. One μM oligomycin, 0.9 μM FCCP and 1 μM rotenone and antimycin A were injected into the media at different time points and OCR and ECAR were measured.
# Cells were finally lysed with 0.1 M NaOH and protein lysate was subsequently stained with Quick Start™ Bradford 1× Dye Reagent (500–0205, BioRad) to normalise results. All parameters were calculated according to manufacturer.
# MCF7 cells [2] = experiment: Mitochondrial staining (MitoTracker Deep Red, microscopy); type: cell-based, Human; settings: 10 µM, 2 days or 5 days
# Description: One hundred thousand MCF7 cells were seeded onto coverslips in 12-well plates. When cells were attached, mDIVI1 and vehicle treatments were performed in triplicate. After 2 days and 5 days, mitochondria were labeled by incubating cells for 15 min at 37° C with 25 nM of MitoTracker DeepRed (M22426, Invitrogen) diluted in PBS ([…], Sigma). Then, cells were washed with PBS, fixed in 2% paraformaldehyde (28908, Thermo Scientific) in PBS for 30 minutes at room temperature and mounted with ProLong® Gold Antifade Mountant reagent with DAPI (P36935, Invitrogen, Inc.). Immunofluorescence pictures were taken in a Leica gated Stimulated Emission Depletion Microscopy (gSTED) with additional confocal and multi-photon illumination (room rg106).
# A375 melanoma = experiment: Tumorsphere formation assay, A375; type: cell-based; settings: five days
# Description: A single cell suspension was prepared using enzymatic (1× Trypsin-EDTA, T3924, Sigma Aldrich), and manual disaggregation (25 gauge needle). Cells were plated at a density of 5000 cells/well in tumorsphere media (DMEM-F12/B27/EGF (20ng/ml)/Pen-Strep) in non-adherent conditions, in 6-well plates coated with (2-hydroxyethylmethacrylate) (poly-HEMA, P3932, Sigma) in the presence of mDIVI1 or vehicle. After 5 days of culture in a humidified incubator at 37° C, tumorspheres bigger than 50 μm were counted using an eye piece graticule.
# Wnt signalling = experiment: Luciferase reporter assay MCF7-GFP-TCF/LEF(luc); type: cell-based, Human; settings: 50 µM, 2 and 5 days
# Description: The Cignal Lenti reporter assay (luc) was used to monitor the activity of several signalling pathways in MCF7-GFP cells as explained previously. Luciferase Assay System (E1501, Promega) was performed according to manufacturer’s instructions. 1 × 10^4 MCF7 were seeded in black-walled 96 well plates. When cells were attached, drug treatments were added for 18, 48 hours and 5 days. After treatment, Luciferase Assay was performed according to manufacturer’s instructions and light signal was acquired in the Xenogen VivoVision IVIS Lumina. Results were normalized by SRB staining of cells grown in 96-well plates in parallel.
# SRB (S9012, Sigma) measures total biomass by staining cellular proteins. After treatment, cells were fixed in 10% tricloroacetic acid (T9159, Sigma) for 1 hour at 4° C, stained with SRB (S9012, Sigma) for 15 minutes, and washed 3 times with 1% acetic acid (27225, Sigma). The incorporated die was solubilized with 10 mM Tris Base, pH 8.8 (T1503, Sigma). Absorbance was spectrophotometrically measured at 562 nm in a FluoStar Omega plate reader (BMG Labtech). Background measurements were subtracted from all values.
# MCF7 cells [3] = experiment: CD24/CD44 expression (FACS); type: cell-based, Human
# Description: Following mDIVI1 treatment, MCF7 cells grown either in suspension or as monolayers were analysed for their expression of CD24 and CD44. The surviving fraction after 2 days and 5 days of growth was analyzed by FACS. MCF7 cells were either trypsinised or spun down and trypsinised and incubated with CD24 (IOTest CD24-PE, Beckman Coulter) and CD44 (APC mouse anti-human CD44, 559942, BD Pharmingen) for 15 minutes on ice. Cells were then rinsed twice in PBS, spun down, and resuspended with DAPI dye (D1306, Molecular probes) at 3 μM in PBS for 10 minutes. Samples were then analyzed by FACS (Fortessa, BD Bioscence). Only the live cell population, identified using the DAPI staining, was analyzed for CD24/CD44 expression. Data were analyzed using FlowJo software.
compound,measurement,setting,value
"COc1cc(-n2c(=S)[nH]c3ccccc3c2=O)c(Cl)cc1Cl [mDIVI1, 3-(2,4-Dichloro-5-methoxyphenyl) 2,3-dihydro 2-thioxo-4(1H) quinazolinone]",effect on MCF7 protein content,"MCF7 cells [1]; 10 µM, 48 hours",slightly decreased
same,effect on MCF7 protein content,"MCF7 cells [1]; 20 µM, 2 days",significantly reduced
same,reduction of MCF7 protein content,"MCF7 cells [1]; 50 µM, 48 hours",~40%
same,mitochondrial morphology,MCF7 cells [2],more interconnected mitochondria
same,decrease of A375 tumorsphere forming capacity,A375 melanoma; 10 µM,over 35%
same,decrease of A375 tumorsphere forming capacity,A375 melanoma; 50 µM,over 90%
same,Wnt/TCF pathway luciferase activity,Wnt signalling,strikingly caused the inhibition
same,CD24−/CD44+ subpopulation,"MCF7 cells [3]; 50 µM, in suspension",significantly increased
same,abundance of CD24−/CD44+ subpopulation,"MCF7 cells [3]; 10 or 50 µM, cells grown as monolayers, vs vehicle",not reduced
same,amount of CD24−/CD44+ cells,"MCF7 cells [3]; cells in suspension, dose-dependent",unexpectedly increased
